Measured values: patent publication US11578343B2, “CAS9 proteins including ligand-dependent inteins” (President and Fellows of Harvard College, priority 2014, dated 2023)

Legend:
Assay type in all cases: cell-based, human
genomic EGFP locus = experiment: Genomic EGFP disruption in HEK293-GFP stable cells (loss of GFP by flow cytometry); settings: for Loss of GFP expression / nuclease activity, in words: with or without 1 μM 4-HT, FIG. 3c
Method: HEK293-GFP stable cells were transfected with the Cas9 expression plasmid, a gRNA (targeting Emerald GFP; Guilinger et al., Nature Biotechnology (2014)), and iRFP670 (transfection control), using Lipofectamine 2000. Twelve hours after transfection, media, either containing 4-HT (1 μM) or without 4-HT, was added.
Five days after transfection, cells were trypsinized and analyzed on a flow cytometer. Cells lacking GFP indicated genome modification. Cas9 variants that induced minimal genome modification in the absence of 4-HT but induce significant genome modification in the presence of 4-HT were deemed small-molecule-regulated variants in this Example.
Additionally, a time course was performed in which incubation with 4-HT was limited to 2, 4, 8, 12 or 24 hours, after which point the media was replaced.
We genetically inserted the 4-HT-dependent intein at each of fifteen positions in Cas9 (Cys80, Ala127, Thr146, Ser219, Thr333, Thr519, Cys574, Thr622, Ser701, Ala728, Thr995, Ser1006, Ser1154, Ser1159, and Ser1274), chosen to distribute the location of the intein across the structural domains of Cas9^23 (FIG. 3b and Example 1). Because intein splicing leaves behind a single Cys residue, the intein was inserted in place of one Cas9 amino acid in each of the 15 candidate constructs. In addition to replacing natural Cys amino acids, we also favored replacing Ala, Ser, or Thr residues to minimize the likelihood that the resulting Cys point mutation resulting from protein splicing would disrupt Cas9 activity. The 15 intein-Cas9 candidates were expressed in HEK293-GFP cells together with a sgRNA that targets the genomic EGFP locus in these cells. Twelve hours post-transfection, cells were treated with or without 1 μM 4-HT. Five days post-transfection, cells were analyzed on a flow cytometer for loss of GFP expression from Cas9-mediated EGFP cleavage and subsequent non-homologous end joining.
Modification of genomic GFP. HEK293-GFP stable cells (GenTarget), which constitutively express Emerald GFP, served as the reporter cell line. Cells were maintained in “full serum media”: Dulbecco's Modified Eagle's Media plus GlutaMax (Life Technologies) with 10% (vol/vol) FBS and penicillin/streptomycin (1×, Amresco). 5×10^4 cells were plated on 48-well collagen-coated Biocoat plates (Becton Dickinson). 16-18 h after plating, cells were transfected with Lipofectamine 2000 (Life Technologies) according to the manufacturer's protocol. Briefly, 1.5 μL of Lipofectamine 2000 was used to transfect 650 ng of total plasmid: 500 ng Cas9 expression plasmid, 125 ng sgRNA expression plasmid, and 25 ng near-infrared iRFP670 expressing plasmid (Addgene plasmid 45457)^26. 12 h after transfection, the media was replaced with full serum media, with or without 4-HT (1 μM, Sigma-Aldrich T176). The media was replaced again 3-4 days after transfection. Five days after transfection, cells were trypsinized and resuspended in full serum media and analyzed on a C6 flow cytometer (Accuri) with a 488-nm laser excitation and 520-nm filter with a 20-nm band pass. Transfections and flow cytometry measurements were performed in triplicate.

VEGF genomic site = experiment: T7 Endonuclease I Surveyor assay of genomic modification; settings: FIG. 2
Method: (§1) The presence of two bands corresponding to smaller DNA fragments (the fragments are approximately the same size for EMX) indicates genomic modification.
(§2) 4-HT (1 μM) was added during transfection for +4-HT samples. 12 hours after transfection the media was replaced. 60 hours after transfection, cells were trypsinized and genomic DNA was isolated using the DNAdvance kit (Agencourt). […] PCR products were purified with a QIAquick PCR Purification Kit (Qiagen) and quantified with a Quant-iT PicoGreen dsDNA Kit (Life Technologies). 200 ng of purified PCR DNA was then combined with 2 μL of NEBuffer 2 (NEB) in a total volume of 19 μL and denatured then re-annealed with thermocycling at 95° C. for 5 min, 95-85° C. at 2° C./s, 85-20° C. at 0.2° C./s. The re-annealed DNA was incubated with 1 μL of T7 Endonuclease I (10 U/μL, NEB) at 37° C. for 15 min. 10 μL of 50% glycerol was added to the T7 Endonuclease reaction and 15 μL was analyzed on a 5% TBE 18-well Criterion PAGE gel (Bio-Rad) electrophoresed for 30 min at 200V and stained with EtBr for 15 min.

CLTA genomic site = experiment: as above; settings: FIG. 2
Method: as §1, §2

EMX genomic site = experiment: as above; settings: FIG. 2
Method: as §1, §2

[1] = +4-HT 2 hrs, then media replaced, Table 2
[2] = +4-HT 4 hrs, then media replaced, Table 2
[3] = +4-HT 8 hrs, then media replaced, Table 2
[4] = +4-HT 12 hrs, then media replaced, Table 2
[5] = +4-HT 24 hrs, then media replaced, Table 2
[6] = +4-HT (1 μM, added 12 h after transfection), five days after transfection, Table 1
[7] = −4-HT, five days after transfection, Table 1

| Substance | Cells without GFP (%) (genomic EGFP locus; [1]) | Cells without GFP (%) (genomic EGFP locus; [2]) | Cells without GFP (%) (genomic EGFP locus; [3]) | Cells without GFP (%) (genomic EGFP locus; [4]) | Cells without GFP (%) (genomic EGFP locus; [5]) | Cells without GFP (%) (genomic EGFP locus; [6]) | Loss of GFP expression / nuclease activity, in words (genomic EGFP locus; listed as C574) | Cells without GFP (%) (genomic EGFP locus; [7]) | Cells without GFP (%) (genomic EGFP locus; −4-HT, time course, Table 2) | Genomic modification of target site (T7E1 gel) (VEGF genomic site; +4-HT (1 μM)) | Genomic modification of target site (T7E1 gel) (VEGF genomic site; absence of 4-HT) | Genomic modification of target site (T7E1 gel) (CLTA genomic site; +4-HT (1 μM)) | Genomic modification of target site (T7E1 gel) (CLTA genomic site; absence of 4-HT) | Genomic modification of target site (T7E1 gel) (EMX genomic site; +4-HT (1 μM)) | Genomic modification of target site (T7E1 gel) (EMX genomic site; absence of 4-HT) | Loss of GFP expression / nuclease activity, in words (genomic EGFP locus; listed as 5219) |
| --- | --- | --- | --- | --- | --- | --- | --- | --- | --- | --- | --- | --- | --- | --- | --- | --- |
| intein(Cys574)-Cas9: Cas9 with 37R3-2 intein replacing Cys574 (SEQ ID NO: 33) | 14.57 | 13.11 | 16.91 | 16.10 | 14.52 | 21.44 | 4-HT-dependent loss of GFP expression and high activity in the presence of 4-HT and low activity in the absence of 4-HT | 5.74 | 2.91 | comparable to modification by wild-type Cas9 | minimal or no modification | comparable to modification by wild-type Cas9 | some background cleavage | comparable to modification by wild-type Cas9 | minimal or no modification |  |
| intein(Ser219)-Cas9: Cas9 with 37R3-2 intein replacing Ser219 (SEQ ID NO: 30) | 17.25 | 17.07 | 15.12 | 15.28 | 24.39 | 23.98 |  | 6.53 | 3.92 | comparable to modification by wild-type Cas9 | minimal or no modification | comparable to modification by wild-type Cas9 | some background cleavage | comparable to modification by wild-type Cas9 | minimal or no modification | 4-HT-dependent loss of GFP expression and high activity in the presence of 4-HT and low activity in the absence of 4-HT |
